Data reported in ChEMBL document CHEMBL4359842 (J Med Chem, 2019).
Activity calls are given as the source filed them. The calls are words filed in the database; no cut-off is given here.

Columns and labels:
Mus musculus [1] = experiment: In vivo inhibition of JNK in APPswe/PS1dE9 double mutant-transgenic mouse model assessed as reduction in Tau phosphorylation at Ser235 residue in cortex at 30 mg/kg, ip administered once daily for 12 weeks measured post-last dose by Western blot analysis; format: functional, organism-based
Mus musculus [2] = experiment: (§1) Improvement in spatial memory impairment in ip dosed APPswe/PS1dE9 double mutant-transgenic mouse model assessed as decrease in area occupied by fibrillar plaque in cortex administered once daily for 12 weeks measured post-last dose by thioflavin S staining-based fluorescence microscopic analysis; format: functional, organism-based
Mus musculus [3] = experiment: In vivo inhibition of […] phosphorylation in hippocampus of APPswe/PS1dE9 double mutant-transgenic mouse model at 30 mg/kg, ip administered once daily for 12 weeks measured post-last dose by Western blot analysis; format: functional, organism-based
Mus musculus [4] = experiment: Improvement in spatial memory impairment in APPswe/PS1dE9 double mutant-transgenic mouse model assessed as increase in duration of time spent in target quadrant at 15 to 30 mg/kg, ip administered once daily for 12 weeks measured 24 hrs after training trial by morris water maze test; format: functional, organism-based
Mus musculus [5] = experiment: Improvement in spatial memory impairment in APPswe/PS1dE9 double mutant-transgenic mouse model assessed as decrease in escape latency at 15 to 30 mg/kg, ip administered once daily for 12 weeks measured 24 hrs after training trial by morris water maze test; format: functional, organism-based
[6] = Clearance in APPswe/PS1dE9 double mutant-transgenic mouse at 3 mg/kg, iv administered as single dose by LC-MS/MS analysis; format: ADME, organism-based; settings: in vivo
Mus musculus [7] = experiment: Effect on acquisition latency time in APPswe/PS1dE9 double mutant-transgenic mouse model at 15 to 30 mg/kg, ip administered once daily for 12 weeks measured post-last dose by step-through passive avoidance test; format: ADME, organism-based; settings: in vivo, 2016 h
[8] = Plasma concentration in APPswe/PS1dE9 double mutant-transgenic mouse at 30 mg/kg, ip administered as single dose measured after 8 hrs by LC-MS/MS analysis; format: ADME, organism-based
Mus musculus [9] = experiment: In vivo inhibition of JNK in APPswe/PS1dE9 double mutant-transgenic mouse model assessed as reduction in APP phosphorylation at Thr668 residue in cortex at 30 mg/kg, ip administered once daily for 12 weeks measured post-last dose by Western blot analysis; format: functional, organism-based
SH-SY5Y = experiment: Neuroprotective activity against amyloid beta (25 to 35 residues)-induced cell death in human SH-SY5Y cells assessed as increase in cell viability at 1 to 10 uM preincubated for 1 hr followed by amyloid beta (25 to 35 residues) addition and measured after 72 hrs by MTT assay; format: functional, cell-based
Mus musculus [10] = experiment: In vivo inhibition of JNK in APPswe/PS1dE9 double mutant-transgenic mouse model assessed as reduction in Tau phosphorylation at Thr205 residue in hippocampus at 30 mg/kg, ip administered once daily for 12 weeks measured post-last dose by Western blot analysis; format: functional, organism-based
[11] = Drug level in APPswe/PS1dE9 double mutant-transgenic mouse brain at 30 mg/kg, ip administered as single dose measured after 8 hrs by LC-MS/MS analysis; format: ADME, organism-based; settings: read-out: Drug uptake
Mus musculus [12] = experiment: (§2) Improvement in spatial memory impairment in ip dosed APPswe/PS1dE9 double mutant-transgenic mouse model assessed as decrease in area occupied by diffused plaque in cortex administered once daily for 12 weeks measured post-last dose by thioflavin S staining-based fluorescence microscopic analysis; format: functional, organism-based
[13] = Ratio of drug level in APPswe/PS1dE9 double mutant-transgenic mouse brain to plasma at 30 mg/kg, ip administered as single dose measured after 0.5 hrs by LC-MS/MS analysis; format: ADME, organism-based; settings: read-out: BPR
[14] = Cmax in APPswe/PS1dE9 double mutant-transgenic mouse at 3 mg/kg, iv administered as single dose by LC-MS/MS analysis; format: ADME, organism-based; set-up: dose 3 mg/kg, route intravenous; settings: in vivo
Mus musculus [15] = experiment: as §1, with “hippocampus” for “cortex”; format: functional, organism-based
[16] = Mean residence time in APPswe/PS1dE9 double mutant-transgenic mouse at 3 mg/kg, iv administered as single dose by LC-MS/MS analysis; format: ADME, organism-based; settings: in vivo
Mus musculus [17] = experiment: as §2, with “hippocampus” for “cortex”; format: functional, organism-based
[18] = molecular target: Mitogen-activated protein kinase 10 (Homo sapiens, UniProt P53779); experiment: Inhibition of recombinant human full-length JNK3 using ATF2 as substrate measured after 40 mins in presence of [gamma33P]ATP by scintillation counting analysis
Chain of Mitogen-activated protein kinase 10 (P53779 whole entry): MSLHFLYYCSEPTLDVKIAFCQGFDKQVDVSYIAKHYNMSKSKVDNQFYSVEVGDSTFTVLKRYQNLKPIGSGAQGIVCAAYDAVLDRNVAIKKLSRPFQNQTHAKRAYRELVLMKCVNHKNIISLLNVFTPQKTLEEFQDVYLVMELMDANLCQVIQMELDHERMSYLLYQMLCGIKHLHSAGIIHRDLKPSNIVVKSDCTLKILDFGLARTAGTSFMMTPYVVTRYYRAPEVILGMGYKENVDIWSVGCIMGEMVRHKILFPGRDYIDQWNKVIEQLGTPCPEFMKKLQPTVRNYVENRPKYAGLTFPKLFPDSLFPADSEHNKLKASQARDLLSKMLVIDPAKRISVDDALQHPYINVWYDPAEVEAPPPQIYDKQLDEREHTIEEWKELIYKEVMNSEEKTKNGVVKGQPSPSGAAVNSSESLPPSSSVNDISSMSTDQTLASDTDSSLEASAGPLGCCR

[19] = Clearance in APPswe/PS1dE9 double mutant-transgenic mouse at 30 mg/kg, ip administered as single dose by LC-MS/MS analysis; format: ADME, organism-based; settings: in vivo
[20] = molecular target: Mitogen-activated protein kinase 9 (Homo sapiens, UniProt P45984); experiment: Inhibition of human JNK2alpha2 using ATF2 as substrate measured after 40 mins in presence of [gamma33P]ATP by scintillation counting analysis
Chain of Mitogen-activated protein kinase 9 (P45984 whole entry): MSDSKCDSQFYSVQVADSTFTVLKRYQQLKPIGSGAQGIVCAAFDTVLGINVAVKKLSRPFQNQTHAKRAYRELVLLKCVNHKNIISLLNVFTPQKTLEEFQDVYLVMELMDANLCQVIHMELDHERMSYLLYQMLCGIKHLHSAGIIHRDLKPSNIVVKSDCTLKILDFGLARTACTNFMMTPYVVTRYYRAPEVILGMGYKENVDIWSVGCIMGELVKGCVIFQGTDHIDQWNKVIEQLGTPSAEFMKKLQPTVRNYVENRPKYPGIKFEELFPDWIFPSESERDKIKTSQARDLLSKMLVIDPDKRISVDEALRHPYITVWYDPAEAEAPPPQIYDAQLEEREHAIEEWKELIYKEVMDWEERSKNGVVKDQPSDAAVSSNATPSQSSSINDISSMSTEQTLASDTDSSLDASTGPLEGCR

Mus musculus [21] = experiment: In vivo inhibition of JNK in APPswe/PS1dE9 double mutant-transgenic mouse model assessed as reduction in Tau phosphorylation at Ser235 residue in hippocampus at 30 mg/kg, ip administered once daily for 12 weeks measured post-last dose by Western blot analysis; format: functional, organism-based
[22] = AUC in APPswe/PS1dE9 double mutant-transgenic mouse at 30 mg/kg, ip administered as single dose by LC-MS/MS analysis; format: ADME, organism-based; settings: in vivo

- clearance [6]: 24.2 mL/min/kg
- concentration at 8 h [8]: 78.1 ng/mL
- concentration at 8 h [11]: 30.7 ng/g
- Kp at 0.5 h [13]: 0.0024
- Cmax [14]: 4550 ng/mL
- MRT [16]: 1.61 h
- IC50 [18]: 40 nM
- CL/F [19]: 26.5 mL/min/kg
- IC50 [20]: > 100000 nM
- AUC [22]: 19200 ng·h/mL
Compound: O=C1N/C(=N/c2ccccc2Cl)S/C1=C1\C(=O)Nc2ccc(F)cc21
- inhibition (Mus musculus [1]): Active
- Activity (Mus musculus [2]): Dose-dependent effect
- inhibition (Mus musculus [3]): Active
- Activity (Mus musculus [4]): Active
- Activity (Mus musculus [5]): Active
- Activity (Mus musculus [7]): Non-Toxic
- inhibition (Mus musculus [9]): Active
- Activity (SH-SY5Y): Active
- inhibition (Mus musculus [10]): Active
- Activity (Mus musculus [12]): Dose-dependent effect
- Activity (Mus musculus [15]): Dose-dependent effect
- Activity (Mus musculus [17]): Dose-dependent effect
- inhibition (Mus musculus [21]): Active
